Laboratory results published in paper PMC4608732, “Phosphorylation and Internalization of Lysophosphatidic Acid Receptors LPA1, LPA2, and LPA3” (PLoS ONE, 2015).

Tests used:
LPA1 receptor [1] = target: T1, LPA1 receptor (Mus musculus, UniProt P61793); test: Heterologous (PMA) / homologous (LPA) desensitization of LPA-induced calcium response, LPA1 cells; type: cell-based
T1 construct: expressed in transfected cells
Procedure: (§1) This procedure has been described previously. Briefly, cells were loaded with 2.5 μM Fura-2 AM in Krebs–Ringer–Hepes containing 0.05% bovine serum albumin (pH 7.4) for 1 h at 37°C and then washed to eliminate unincorporated indicator. Determinations were carried in an AMINCO-Bowman Series 2 luminescence spectrometer, employing 340 and 380 nm excitation wavelengths and an emission wavelength of 510 nm; chopper interval was 0.5 sec. The intracellular calcium concentration was calculated as described by Grynkiewicz et al.. In the experiments where prolonged incubation was required (resensitization studies), cells were stimulated, washed, and the incubation was continued in the presence of Fura-2 AM, to avoid dye depletion.
(§2) Agonists-mediated decreases occurred in a concentration-dependent fashion, with a maximum at the concentration of ~ 100 nM. […] It is worth noticing that the shift in the curves was more pronounced in LPA1- or LPA3-expressing cells, than in those that expressed the LPA2 subtype.
(§3) Plotted are the increases in calcium as the percentage of that obtained in cells preincubated without any agent as mean ± S. E. M. of 6 experiments using different cell preparations.

LPA2 receptor [2] = target: T2, LPA2 receptor (Homo sapiens, UniProt Q9HBW0); test: Heterologous (PMA) / homologous (LPA) desensitization of LPA-induced calcium response, LPA2 cells; type: cell-based
T2 sequence (Q9HBW0 whole entry): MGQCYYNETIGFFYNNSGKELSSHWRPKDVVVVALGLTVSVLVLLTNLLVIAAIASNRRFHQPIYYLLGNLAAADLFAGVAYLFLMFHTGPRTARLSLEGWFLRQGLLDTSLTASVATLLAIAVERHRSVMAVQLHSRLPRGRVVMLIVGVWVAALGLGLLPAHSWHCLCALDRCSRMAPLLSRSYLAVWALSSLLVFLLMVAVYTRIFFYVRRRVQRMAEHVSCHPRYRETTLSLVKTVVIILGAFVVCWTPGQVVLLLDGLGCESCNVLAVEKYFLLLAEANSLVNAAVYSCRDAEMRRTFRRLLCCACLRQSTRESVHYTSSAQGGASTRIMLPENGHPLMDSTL
Procedure: as §1, §2, §3

LPA3 receptor [3] = target: T3, LPA3 receptor (Homo sapiens, UniProt Q9UBY5); test: Heterologous (PMA) / homologous (LPA) desensitization of LPA-induced calcium response, LPA3 cells; type: cell-based
T3 sequence (Q9UBY5 1-353): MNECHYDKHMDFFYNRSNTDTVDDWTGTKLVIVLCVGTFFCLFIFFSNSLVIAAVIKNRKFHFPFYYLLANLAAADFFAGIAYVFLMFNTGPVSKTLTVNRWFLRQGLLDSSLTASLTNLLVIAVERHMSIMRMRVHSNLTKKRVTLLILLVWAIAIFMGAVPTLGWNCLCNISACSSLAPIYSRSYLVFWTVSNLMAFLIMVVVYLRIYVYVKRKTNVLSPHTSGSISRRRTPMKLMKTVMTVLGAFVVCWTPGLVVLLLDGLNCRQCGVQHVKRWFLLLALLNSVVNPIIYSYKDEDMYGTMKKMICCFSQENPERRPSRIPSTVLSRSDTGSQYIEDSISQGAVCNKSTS
Procedure: as §1, §2, §3

LPA1 receptor [4] = target: T1, LPA1 receptor; test: LPA1 receptor phosphorylation ([32P]Pi labeling, immunoprecipitation); type: cell-based; details: for time to maximum receptor phosphorylation: 1 μM agent, LPA1 cells
Procedure: (§4) The procedure was very similar to that previously described to study LPA1 receptor phosphorylation. In brief, cells were incubated in phosphate-free Dulbecco’s modified Eagle’s medium containing 100 μCi/ml [^32P]Pi for 3 h at 37°C. LPA1- and LPA2-expressing cells were cultured in 6 well plates, whereas those expressing LPA3 receptors were cultured in 10 cm dishes. Labeled cells were stimulated with the agents tested and then washed twice with ice-cold phosphate buffered saline and solubilized in buffer containing 10 mM Tris, 150 mM NaCl, 1% sodium cholate, 1% Nonident P40, protease and phosphatase inhibitors, pH 7.4 [11, 12, 14]. The lysates were incubated overnight with protein A-agarose and anti-GFP serum with constant agitation at 4°C. Samples were washed and the pellets containing the immunocomplexes were solubilized in Laemmli’s sample buffer containing 5% β-mercaptoethanol. Proteins were separated using 10% SDS-PAGE and electrotransferred onto polyvinyliden fluoride membranes. Receptor phosphorylation was analyzed with a Molecular Dynamics Typhoon PhosphorImager and the ImageJ software (http://rsb.info.nih.gov/ij/).

LPA2 receptor [5] = target: T2, LPA2 receptor; test: LPA2 receptor phosphorylation ([32P]Pi labeling, immunoprecipitation); type: cell-based; details: for time to maximum receptor phosphorylation: 1 μM agent, LPA2 cells; for concentration-response curve, receptor phosphorylation: 15 min incubation, LPA2-overexpressing cells, shift to higher concentrations
Procedure: as §4

LPA3 receptor [6] = target: T3, LPA3 receptor; test: LPA3 receptor phosphorylation ([32P]Pi labeling, immunoprecipitation); type: cell-based; details: for time to maximum receptor phosphorylation: 1 μM agent, LPA3 cells; for concentration at which receptor phosphorylation saturates: 15 min incubation, LPA3-overexpressing cells
LPA1 receptor [7] = target: T1, LPA1 receptor; test: LPA1 receptor internalization, confocal imaging; type: cell-based; details: LPA1 cells; for receptor internalization (fluorescence at the plasma membrane): 1 μM agent, 30 or 60 min
Procedure: (§5) Cells were seeded at approximately 30% confluence onto glass-bottomed Petri dishes and cultured for 3 h at 37°C in media containing 1% serum. After treatment, cells were washed three times with phosphate buffered saline and fixed with 4% paraformaldehyde in 0.1 M phosphate buffer for 20 min at room temperature; samples were then washed three additional times with phosphate buffered saline. The fluorescent images were acquired with an Olympus Fluoview FV10 confocal microscope with a water-immersion objective (60X). To determine receptor internalization, the plasma membrane was delineated utilizing the differential interference contrast imaging, and fluorescence in this region was quantified employing the ImageJ software. At least 5 or 6 images of different cultures were taken for each condition. Data were normalized as follows: for each experiment, fluorescence (arbitrary units) at the plasma membrane of baseline samples were pooled and the average was considered as 100%.

LPA2 receptor [8] = target: T2, LPA2 receptor; test: LPA2 receptor internalization, confocal imaging; type: cell-based; details: LPA2 cells; for receptor internalization (decrease in fluorescence at the plasma membrane, compared with other subtypes): 1 μM agent, 30 or 60 min
Procedure: as §5

LPA3 receptor [9] = target: T3, LPA3 receptor; test: LPA3 receptor internalization, confocal imaging; type: cell-based; details: LPA3 cells; for receptor internalization (fluorescence at the plasma membrane): 1 μM agent, 30 or 60 min
Procedure: as §5

wild-type C9 cells = test: Intracellular calcium concentration response to LPA, wild type C9 cells; type: cell-based, rat
Procedure: (§6) C9 cells (Clone 9, rat hepatic epithelial cells, CRL-1439™), obtained directly from American Type Culture Collection, were cultured in Ham’s F12 Kaighn’s modification medium supplemented with 10% fetal bovine serum, 100 μg/ml streptomycin, 100 units/ml penicillin and 0.25 μg/ml amphotericin B at 37°C under a 95% air and 5% CO2 atmosphere, as described previously. The medium was replaced with one containing 1% fetal bovine serum, 12–16 h before the experiment. C9 cells stably expressing the mouse LPA1 receptor fused at the carboxyl termini with eGFP were those previously described. […] As depicted in”Fig A in S1 File”, expression of LPA1 and LPA2 receptors was similar (~80%) whereas that of LPA3 was consistently lower (~60%), as evidenced by fluorescence imaging and flow cytometry. Flow cytometry was performed using an Attune NxT Acoustic Focusing Cytometer, employing excitation of 488 nm; data were analyzed using the Attune cytometric software included with the equipment.
(§7) This procedure has been described previously. […] Determinations were carried in an AMINCO-Bowman Series 2 luminescence spectrometer, employing 340 and 380 nm excitation wavelengths and an emission wavelength of 510 nm; chopper interval was 0.5 sec. The intracellular calcium concentration was calculated as described by Grynkiewicz et al.. […]

LPA1 receptor [10] = target: T1, LPA1 receptor; test: Intracellular calcium concentration response to LPA, C9 cells overexpressing LPA1; type: cell-based
Procedure: as §6, §7

LPA2 receptor [11] = target: T2, LPA2 receptor; test: Intracellular calcium concentration response to LPA, C9 cells overexpressing LPA2; type: cell-based
Procedure: as §6, §7

LPA3 receptor [12] = target: T3, LPA3 receptor; test: Intracellular calcium concentration response to LPA, C9 cells overexpressing LPA3; type: cell-based; details: cells over-expressing LPA3
Procedure: C9 cells (Clone 9, rat hepatic epithelial cells, CRL-1439™), obtained directly from American Type Culture Collection, were cultured in Ham’s F12 Kaighn’s modification medium supplemented with 10% fetal bovine serum, 100 μg/ml streptomycin, 100 units/ml penicillin and 0.25 μg/ml amphotericin B at 37°C under a 95% air and 5% CO2 atmosphere, as described previously [11]. The medium was replaced with one containing 1% fetal bovine serum, 12–16 h before the experiment. C9 cells stably expressing the mouse LPA1 receptor fused at the carboxyl termini with eGFP were those previously described [11]. […] Flow cytometry was performed using an Attune NxT Acoustic Focusing Cytometer, employing excitation of 488 nm; data were analyzed using the Attune cytometric software included with the equipment.
Briefly, cells were loaded with 2.5 μM Fura-2 AM in Krebs–Ringer–Hepes containing 0.05% bovine serum albumin (pH 7.4) for 1 h at 37°C and then washed to eliminate unincorporated indicator. Determinations were carried in an AMINCO-Bowman Series 2 luminescence spectrometer, employing 340 and 380 nm excitation wavelengths and an emission wavelength of 510 nm; chopper interval was 0.5 sec. The intracellular calcium concentration was calculated as described by Grynkiewicz et al. [27]. […]

ERK 1/2 = ERK 1/2 phosphorylation (Western blotting) in C9 cells overexpressing LPA1-3; type: cell-based, rat; details: 1 μM LPA, 5 min, cells overexpressing LPA1-3
Procedure: Cells were cultured to near confluence in 6 well plates and stimulated with the agents tested for the times indicated. Total cellular extracts were obtained by lysing the cells in Laemmli’s sample buffer containing 5% β-mercaptoethanol. The cell extracts were subject to 10% SDS-PAGE and transferred to nitrocellulose membranes. Membranes from samples obtained in parallel were incubated overnight at 4°C, with anti-pERK 1/2 (1:2000) or anti ERK 1/2 (1:2000). The membranes were washed and incubated for 1 h at room temperature with a horseradish peroxidase-conjugated secondary antibody (1:10,000) for enhanced chemiluminescence detection.

[13] = read-out: IC50, inhibition of LPA-induced calcium response (heterologous desensitization)
[14] = 15 min incubation, LPA1-overexpressing cells
[15] = 1 μM LPA 10 min, washed, incubated to 60 or 120 min

T1 sequence (P61793 whole entry): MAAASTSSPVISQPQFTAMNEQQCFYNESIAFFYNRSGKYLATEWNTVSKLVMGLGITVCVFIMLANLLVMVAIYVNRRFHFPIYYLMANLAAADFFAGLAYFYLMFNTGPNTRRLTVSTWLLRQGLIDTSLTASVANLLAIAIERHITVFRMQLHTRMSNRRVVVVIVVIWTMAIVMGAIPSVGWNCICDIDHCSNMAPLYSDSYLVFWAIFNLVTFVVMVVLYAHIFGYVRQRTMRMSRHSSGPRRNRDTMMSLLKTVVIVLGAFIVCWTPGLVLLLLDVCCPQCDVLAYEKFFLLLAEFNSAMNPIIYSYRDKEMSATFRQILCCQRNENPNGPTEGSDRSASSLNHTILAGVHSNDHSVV

Structure (SMILES): CCCCCCCCCCCCCC(=O)O[C@@H]1[C@@H](C)[C@@]2(O)[C@@H](C=C(CO)C[C@]3(O)C(=O)C(C)=C[C@@H]23)[C@@H]2C(C)(C)[C@]12OC(C)=O [PMA, phorbol myristate acetate]
- IC50 (LPA1 receptor [1]; [13]): 1 to 3 nM
- remaining calcium response to LPA (LPA2 receptor [2]; LPA2 cells, highest PMA concentration tested): 30–40%
- IC50 (LPA2 receptor [2]; [13]): 3 to 10 nM
- IC50 (LPA3 receptor [3]; [13]): 3 to 10 nM
- EC50 (LPA1 receptor [4]): 3 to 10 nM
- time to maximum receptor phosphorylation (LPA1 receptor [4]): ≤ 5 min
- concentration at which receptor phosphorylation saturates (LPA1 receptor [4]; [14]): 100 nM
- time to maximum receptor phosphorylation (LPA2 receptor [5]): ≤ 5 min
- concentration-response curve, receptor phosphorylation (LPA2 receptor [5]): no clear saturation was obtained
- EC50 (LPA3 receptor [6]): 3 to 10 nM
- time to maximum receptor phosphorylation (LPA3 receptor [6]): ≤ 5 min
- concentration at which receptor phosphorylation saturates (LPA3 receptor [6]): 100 nM
- receptor internalization (fluorescence at the plasma membrane) (LPA1 receptor [7]): markedly decreasing fluorescence at the plasma membrane level
- receptor internalization (decrease in fluorescence at the plasma membrane, compared with other subtypes) (LPA2 receptor [8]): much less intense
- receptor internalization (fluorescence at the plasma membrane) (LPA3 receptor [9]): markedly decreasing fluorescence at the plasma membrane level

Structure (SMILES): CCCCCCCC/C=C\CCCCCCCC(=O)OC[C@@H](O)COP(=O)(O)O [LPA]
- maximal calcium concentration increase (wild-type C9 cells): 150 to 200 nM
- EC50 (wild-type C9 cells; read-out: EC50, increase in intracellular calcium concentration): 200 to 400 nM
- EC50 (LPA1 receptor [10]; LPA1-overexpressing cells, read-out: EC50, increase in intracellular calcium concentration): 200 to 400 nM
- calcium response (increase of the cation's concentration) (LPA1 receptor [10]; cells over-expressing LPA1): 450 to 600 nM
- LPA concentration response curve, intracellular calcium (LPA2 receptor [11]; LPA2-overexpressing cells, curve shifted to the right): no clear saturation was achieved at the concentrations tested
- calcium response (increase of the cation's concentration) (LPA2 receptor [11]; cells over-expressing LPA2): 450 to 600 nM
- calcium response (increase of the cation's concentration) (LPA3 receptor [12]): ~ 300 nM
- concentration giving maximum homologous desensitization (LPA1 receptor [1]; preincubation 10 min, washed, challenge 1 μM LPA, LPA1 cells): ~ 100 nM
- concentration giving maximum homologous desensitization (LPA2 receptor [2]; preincubation 10 min, washed, challenge 1 μM LPA, LPA2 cells): ~ 100 nM
- concentration giving maximum homologous desensitization (LPA3 receptor [3]; preincubation 10 min, washed, challenge 1 μM LPA, LPA3 cells): ~ 100 nM
- time to maximum receptor phosphorylation (LPA1 receptor [4]): ≤ 15 min
- concentration at which receptor phosphorylation saturates (LPA1 receptor [4]; [14]): ~ 1 μM
- EC50 (LPA1 receptor [4]; 15 min incubation, LPA1-overexpressing cells, read-out: EC50, receptor phosphorylation): 10 to 30 nM
- time to maximum receptor phosphorylation (LPA2 receptor [5]): ≤ 15 min
- concentration-response curve, receptor phosphorylation (LPA2 receptor [5]): no clear saturation was obtained
- time to maximum receptor phosphorylation (LPA3 receptor [6]): ≤ 15 min
- concentration at which receptor phosphorylation saturates (LPA3 receptor [6]): ~ 1 μM
- increase in ERK phosphorylation (ERK 1/2): ~ 2 fold
- recovery of fluorescence at the membrane level after washing (LPA1 receptor [7]; [15]): recovered rapidly and completely
- receptor internalization (fluorescence at the plasma membrane) (LPA1 receptor [7]): markedly decreasing fluorescence at the plasma membrane level
- recovery of fluorescence at the membrane level after washing (LPA2 receptor [8]; [15]): slowly
- receptor internalization (decrease in fluorescence at the plasma membrane, compared with other subtypes) (LPA2 receptor [8]): much less intense
- recovery of fluorescence at the membrane level after washing (LPA3 receptor [9]; [15]): only partially and also slowly
- receptor internalization (fluorescence at the plasma membrane) (LPA3 receptor [9]): markedly decreasing fluorescence at the plasma membrane level
